Experimental data as given in patent publication US20040171632A1, “Combination chemotherapy” (priority 1998, published 2004).
One block for each molecule: values may come before it.

Columns and labels:
colon 26 carcinoma cells = assay: apoptosis of colon 26 carcinoma cells in culture (phalloidin-FITC, flow cytometry); type: cell-based, mouse; settings: for increase of apoptosis: FIG. 1; for incidence in apoptosis: second study, FIG. 2
Procedure: The data establish that the vehicle alone (DMSO) caused no effect on apoptosis (programmed cell death) of the colon 26 carcinoma cells. […] At the 30 nM concentration of paclitaxel, the combination caused about an 18% incidence in apoptosis.
The assay described above was repeated, and the results (see FIG. 2) confirmed that the combinations of this invention are useful to treat and control cancer. In this second study, DMSO did cause measurable cell death, somewhat similar to that observed with the 30 nM concentration of paclitaxel alone.

[1] = test system: non-small cell lung carcinoma cells (A549); settings: Taxol alone at 10 nM; one set of experiments
Procedure: The colon 26 carcinoma cells were originally collected from a mouse that had undergone surgery to remove the infected section of the colon, and are now readily available from Southern Research Institute (Birmingham, Ala., USA). The cells were cultured to approximately 80% confluency on Day 0 of the assay. At 72 hours after the 80% confluency was established, dimethylsulfoxide (DMSO) was added to one set of cells to act as untreated controls. Paclitaxel at concentrations of 30 nM and 100 nM was added to other sets of cells. All of the cells were incubated at 38° C. for 48 hours, at which time MEK inhibitor 2-(2-chloro-4-iodophenylamino)-N-cyclopropylmethoxy-3,4-difluorobenzamide (PD184352), at a concentration of 1.0 micromolar, was added to one set of the DMSO control cells, and to the cells containing the two concentrations of paclitaxel. All cells were again incubated for an additional 48-hour period. The cells were harvested from the growth medium, and were fixed in ethanol. The cells were then treated with FITC (fluorescein isothiocyanate)-labeled phalloidin (Sigma). Binding of phalloidin-FITC to depolymerized actin thereby serves as a measure of apoptosis. Propidium iodide was also added to the treated and control cells for the purpose of staining all cells. The extent of apoptosis of tumor cells was measured by flow cytometry analysis. […]

Compound: CC(=O)O[C@H]1C(=O)[C@@]2(C)[C@H]([C@H](OC(=O)c3ccccc3)[C@]3(O)C[C@H](OC(=O)[C@H](O)[C@@H](NC(=O)c4ccccc4)c4ccccc4)C(C)=C1C3(C)C)[C@]1(OC(C)=O)CO[C@@H]1C[C@@H]2O [paclitaxel]
increase of apoptosis (colon 26 carcinoma cells; paclitaxel alone at 30 nM): about 9%
increase of apoptosis (colon 26 carcinoma cells; paclitaxel alone at 100 nM): about 18%
incidence in apoptosis (colon 26 carcinoma cells; paclitaxel at 100 nM alone): ~11%
incidence of apoptosis [1]: 41%

Compound: O=C(NOCC1CC1)c1ccc(F)c(F)c1Nc1ccc(I)cc1Cl [PD184352, 2-(2-chloro-4-iodophenylamino)-N-cyclopropylmethoxy-3,4-difluorobenzamide]
increase of apoptosis (colon 26 carcinoma cells; MEK inhibitor alone, at 30 nM as printed): about 5%
incidence in apoptosis (colon 26 carcinoma cells; MEK inhibitor administered alone): ~18%

Compound: Cc1cc(I)ccc1Nc1ccc(Cl)cc1C(=O)NCCO [Example 31, 5-Chloro-N-(2-hydroxyethyl)-2-(4-iodo-2-methyl-phenylamino)-benzamide]
melting point: 120 to 121 °C

Further lines, results first:

melting point: 231 °C
Compound: Cc1cc(I)ccc1Nc1ccccc1-c1nnn[nH]1 [Example 208, (4-iodo-2-methyl-phenyl)-[2-(1H-tetrazol-5-yl)-phenyl]amine]

melting point: 99 to 100.5 °C
Compound: Cc1cc(I)ccc1Nc1cc(F)ccc1CO [Example 49, 4-Fluoro-2-(4-iodo-2-methyl-phenylamino)-benzyl alcohol]
